Values of other authors as cited in paper PMC6095608 (PLoS ONE, 2018).

System: rats
Conditions: co-administered trimethoprim; cited from earlier work

For `COc1cc(Cc2cnc(N)nc2N)cc(OC)c1OC` [trimethoprim], the “Effect on lamivudine accumulation in the renal cortex” value is given as “did not impair”.
